Source: patent publication US9920063B2, “Melampomagnolide B derivatives” (Board of Trustees of the University of Arkansas, priority 2013, dated 2018)
Where two headings read alike, the source gives them in different places.

What was measured:
[1] = tested on: RXF 393
[2] = tested on: M14
[3] = tested on: AML 052308 cells; assay: Antileukemic activity against AML 052308 cells in culture
Procedure: For each compound, in vitro cell culture studies were performed in which a range of concentrations (0.25-20 μM) was tested for cytotoxicity against leukemia cell lines, primary leukemia specimens and normal bone marrow controls.

[4] = tested on: COLO 205; assay: NCI human tumor cell line panel, Colon Cancer; format: cell-based
[5] = tested on: U251

C=C1C(=O)O[C@H]2[C@H]1CC/C(COC(=O)c1cc3ccccc3[nH]1)=C\CC[C@@]1(C)O[C@@H]21 [BS-1-28]
CC50 [1]: 6.23 µM
Percent Growth ([1]; RXF 393, Log10 Concentration −4.0): −65%
Percent Growth ([1]; RXF 393, Log10 Concentration −5.0): −77%
Percent Growth ([1]; RXF 393, Log10 Concentration −6.0): 54%
Percent Growth ([1]; RXF 393, Log10 Concentration −7.0): 85%
Percent Growth ([1]; RXF 393, Log10 Concentration −8.0): 73%
GI50 ([1]; RXF 393, NCI five dose): 1.07 µM
TGI ([1]; RXF 393, NCI five dose): 2.58E−6
CC50 [2]: 5.76 µM
Percent Growth ([2]; M14, Log10 Concentration −4.0): −92%
Percent Growth ([2]; M14, Log10 Concentration −5.0): −80%
Percent Growth ([2]; M14, Log10 Concentration −6.0): 46%
Percent Growth ([2]; M14, Log10 Concentration −7.0): 87%
Percent Growth ([2]; M14, Log10 Concentration −8.0): 88%
GI50 ([2]; M14, NCI five dose): 0.814 µM
TGI ([2]; M14, NCI five dose): 2.32E−6
Fold more potent than parthenolide ([3]; AML 052308 cells): around 3 fold
EC50 ([3]; AML 052308 cells in culture): 2.2 µM
Percent Growth ([4]; Log10 Concentration −4.0): −63%
Percent Growth ([4]; Log10 Concentration −5.0): −61%
Percent Growth ([4]; Log10 Concentration −6.0): 39%
Percent Growth ([4]; Log10 Concentration −7.0): 60%
Percent Growth ([4]; Log10 Concentration −8.0): 27%
TGI ([4]; NCI five dose): 2.44E−6
CC50 [5]: 8.68 µM
Percent Growth ([5]; U251, Log10 Concentration −4.0): −74%
Percent Growth ([5]; U251, Log10 Concentration −5.0): −59%
Percent Growth ([5]; U251, Log10 Concentration −6.0): 92%
Percent Growth ([5]; U251, Log10 Concentration −7.0): 96%
Percent Growth ([5]; U251, Log10 Concentration −8.0): 98%
GI50 ([5]; U251, NCI five dose): 1.69 µM
TGI ([5]; U251, NCI five dose): 4.06E−6
